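GI50 marks 50% less growth. At the TGI there is no net growth.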
Key:
Assay in all cases: inhibition of tumour cell growth, NCI panel, 384-well format
[1] = tested on: BT-549 breast
[2] = tested on: HOP-62 NSCLC
[3] = tested on: MOLT-4 leukemia
[4] = tested on: T-47D breast
[5] = tested on: SNB-75 CNS
[6] = tested on: MDA-MB-435 melanoma
[7] = tested on: HOP-92 NSCLC
[8] = tested on: MDA-MB-468 breast
[9] = tested on: HS 578T breast
[10] = tested on: ACHN renal
[11] = tested on: COLO 205 colon
[12] = tested on: SF-268 CNS
[13] = tested on: HT29 colon
[14] = tested on: UACC-62 melanoma
[15] = tested on: SN12C renal
[16] = tested on: A498 renal
[17] = tested on: HCT-15 colon
[18] = tested on: NCI/ADR-RES ovarian
[19] = tested on: MCF7 breast
[20] = tested on: SF-539 CNS
[21] = tested on: SK-MEL-2 melanoma
[22] = tested on: OVCAR-3 ovarian
[23] = tested on: CCRF-CEM leukemia
[24] = tested on: UACC-257 melanoma
[25] = tested on: OVCAR-4 ovarian
[26] = tested on: PC-3 prostate
[27] = tested on: TK-10 renal
[28] = tested on: NCI-H460 NSCLC
[29] = tested on: RXF 393 renal
[30] = tested on: SNB-19 CNS
[31] = tested on: SK-OV-3 ovarian
[32] = tested on: MALME-3M melanoma
[33] = tested on: SK-MEL-28 melanoma
[34] = tested on: A549 NSCLC
[35] = tested on: NCI-H522 lung
[36] = tested on: OVCAR-5 ovarian
[37] = tested on: NCI-H322M lung
[38] = tested on: SF-295 CNS
[39] = tested on: MDA-MB-231 breast
[40] = tested on: CAKI-1 renal
[41] = tested on: IGROV1 ovarian
[42] = tested on: RPMI-8226 leukemia
[43] = tested on: NCI-H23 lung
[44] = tested on: OVCAR-8 ovarian
[45] = tested on: NCI-H226 lung
[46] = tested on: KM12 colon
[47] = tested on: SW-620 colon
[48] = tested on: DU-145 prostate
[49] = tested on: EKVX NSCLC
[50] = tested on: 786-0 renal
[51] = tested on: M14 melanoma
[52] = tested on: SK-MEL-5 melanoma
[53] = tested on: U251 glioblastoma
[54] = tested on: HCC-2998 colon
[55] = tested on: SR leukemia
[56] = tested on: HL-60(TB) leukemia

Structure (SMILES): O=c1ccn(C2OC(CO)C(O)C2F)c(=O)[nH]1 (configuration not stated)
- GI50 [1]: > 100 µM
- TGI [1]: > 100 µM
- GI50 [2]: > 100 µM
- TGI [2]: > 100 µM
- GI50 [3]: 53.1 µM
- TGI [3]: > 100 µM
- GI50 [4]: > 100 µM
- TGI [4]: > 100 µM
- GI50 [5]: > 100 µM
- TGI [5]: > 100 µM
- GI50 [6]: > 100 µM
- TGI [6]: > 100 µM
- GI50 [7]: > 100 µM
- TGI [7]: > 100 µM
- GI50 [8]: > 100 µM
- TGI [8]: > 100 µM
- GI50 [9]: > 100 µM
- TGI [9]: > 100 µM
- GI50 [10]: > 100 µM
- TGI [10]: > 100 µM
- GI50 [11]: > 100 µM
- TGI [11]: > 100 µM
- GI50 [12]: > 100 µM
- TGI [12]: > 100 µM
- GI50 [13]: > 100 µM
- TGI [13]: > 100 µM
- GI50 [14]: > 100 µM
- TGI [14]: > 100 µM
- GI50 [15]: > 100 µM
- TGI [15]: > 100 µM
- GI50 [16]: > 100 µM
- TGI [16]: > 100 µM
- GI50 [17]: > 100 µM
- TGI [17]: > 100 µM
- GI50 [18]: > 100 µM
- TGI [18]: > 100 µM
- GI50 [19]: > 100 µM
- TGI [19]: > 100 µM
- GI50 [20]: > 100 µM
- TGI [20]: > 100 µM
- GI50 [21]: > 100 µM
- TGI [21]: > 100 µM
- GI50 [22]: > 100 µM
- TGI [22]: > 100 µM
- GI50 [23]: 37.3 µM
- TGI [23]: > 100 µM
- GI50 [24]: > 100 µM
- TGI [24]: > 100 µM
- GI50 [25]: > 100 µM
- TGI [25]: > 100 µM
- GI50 [26]: > 100 µM
- TGI [26]: > 100 µM
- GI50 [27]: > 100 µM
- TGI [27]: > 100 µM
- GI50 [28]: > 100 µM
- TGI [28]: > 100 µM
- GI50 [29]: > 100 µM
- TGI [29]: > 100 µM
- GI50 [30]: > 100 µM
- TGI [30]: > 100 µM
- GI50 [31]: > 100 µM
- TGI [31]: > 100 µM
- GI50 [32]: > 100 µM
- TGI [32]: > 100 µM
- GI50 [33]: > 100 µM
- TGI [33]: > 100 µM
- GI50 [34]: > 100 µM
- TGI [34]: > 100 µM
- GI50 [35]: > 100 µM
- TGI [35]: > 100 µM
- GI50 [36]: > 100 µM
- TGI [36]: > 100 µM
- GI50 [37]: > 100 µM
- TGI [37]: > 100 µM
- GI50 [38]: > 100 µM
- TGI [38]: > 100 µM
- GI50 [39]: > 100 µM
- TGI [39]: > 100 µM
- GI50 [40]: > 100 µM
- TGI [40]: > 100 µM
- GI50 [41]: > 100 µM
- TGI [41]: > 100 µM
- GI50 [42]: > 100 µM
- TGI [42]: > 100 µM
- GI50 [43]: > 100 µM
- TGI [43]: > 100 µM
- GI50 [44]: > 100 µM
- TGI [44]: > 100 µM
- GI50 [45]: > 100 µM
- TGI [45]: > 100 µM
- GI50 [46]: > 100 µM
- TGI [46]: > 100 µM
- GI50 [47]: > 100 µM
- TGI [47]: > 100 µM
- GI50 [48]: > 100 µM
- TGI [48]: > 100 µM
- GI50 [49]: > 100 µM
- TGI [49]: > 100 µM
- GI50 [50]: > 100 µM
- TGI [50]: > 100 µM
- GI50 [51]: > 100 µM
- TGI [51]: > 100 µM
- GI50 [52]: > 100 µM
- TGI [52]: > 100 µM
- GI50 [53]: > 100 µM
- TGI [53]: > 100 µM
- GI50 [54]: > 100 µM
- TGI [54]: > 100 µM
- GI50 [55]: > 100 µM
- TGI [55]: > 100 µM
- GI50 [56]: > 100 µM
- TGI [56]: > 100 µM

From PubChem BioAssay (NCI)
